Measured values taken from US8829029B2, “Dual modulators of 5HT2A and D3 receptors” (Hoffmann-La Roche Inc., priority 2008, dated 2014).

Tests used:
[1] = target: human D3 dopamine receptor (Homo sapiens (Human), UniProt P35462); assay: Radioligand binding ([3H]-spiperone) to cloned human D3 receptor expressed in HEK-293 EBNA cells; settings: membranes of transfected HEK-293 EBNA cells, 0.5 nM [3H]-spiperone, 1 h at RT
Procedure: HEK-293 EBNA cells were transiently transfected with expression plasmids encoding for the human D2 or D3 dopamine- or for the human 5-HT2A serotonin receptor, respectively. The cells were harvested 48 h post-transfection, washed three times with cold PBS and stored at −80° C. prior to use. […] After centrifugation at 48,000×g for 30 min at 4° C., the pellet was resuspended in cold 10 mM Tris-HCl buffer containing 0.1 mM EDTA (pH 7.4), homogenized, and centrifuged as above. […] The protein content of this homogenate was determined with the Bio-Rad (Bradford) Protein Assay (Biorad Laboratories GmbH, München, Germany) according to the instructions of the manufacturer using gamma globulin as the standard. This homogenate was stored at −80° C. in aliquots and thawed immediately prior to use.
(§1) The binding affinity (Ki) of the compounds was determined using radioligand binding. Membranes were incubated in a total volume of 200 μl with a fixed concentration of radioligand (final concentration approximately 0.7 nM [^3H]-spiperone for D2, 0.5 nM [^3H]-spiperone for D3, and 1.1 nM [^3H]-ketanserin for 5-HT2A) and ten concentrations of test compound in ranging between 10 μM-0.1 nM for 1 h at RT. At the end of the incubation, the reaction mixtures were filtered on to unifilter 96-well white microplates with bonded GF/C filters (Packard BioScience, Zürich, Switzerland; preincubated for 1 h in 0.1% polyethylenimine (PEI) in assay buffer) with a Filtermate 196 harvester (Packard BioScience) and washed 3 times with cold assay buffer. The nonspecific binding was determined with equally composed reaction mixtures in the presence of 10 μM unlabelled spiperone. Per well 45 μl of Microscint 40 (Perkin Elmer, Schwerzenbach, Switzerland) was added, plates for sealed, shaken for 20 min and counted for 3 min on a Topcount Microplate Scintillation Counter (Canberra Packard SA, Zürich, Switzerland) with quenching correction.
(§2) The CPM value for each duplicate of a concentration of competing compound was averaged (y1), then the % specific binding was calculated according to the equation (((y1−non-specific)/(total binding−non-specific))×100). Graphs were plotted with the % specific binding using XLfit, a curve fitting program that iteratively plots the data using Levenburg Marquardt algorithm. The single site competition analysis equation used was y=A+((B−A)/(1+((x/C)^D))), where y is the % specific binding, A is the minimum y, B is the maximum y, C is the IC50, x is the log10 of the concentration of the competing compound and D is the slope of the curve (the Hill Coefficient). From these curves the IC50 (inhibition concentration at which 50% specific binding of the radioligand was displaced) and Hill coefficient were determined. The affinity constant (Ki) was calculated using the Cheng-Prusoff equation Ki=(IC50/1+([L]/Kd), where [L] is the concentration of radioligand and Kd is the dissociation constant of the radioligand at the receptor as determined by the saturation isotherm.

[2] = target: human 5-HT2A serotonin receptor (Homo sapiens (Human), UniProt P28223); assay: Radioligand binding ([3H]-ketanserin) to cloned human 5-HT2A receptor expressed in HEK-293 EBNA cells; settings: membranes of transfected HEK-293 EBNA cells, 1.1 nM [3H]-ketanserin, 1 h at RT
Procedure: The ability of the compounds to bind to the 5-HT2A, D3 and D2 receptors was determined using radioligand binding to cloned receptors selectively expressed in HEK-293 EBNA cells.
HEK-293 EBNA cells were transiently transfected with expression plasmids encoding for the human D2 or D3 dopamine- or for the human 5-HT2A serotonin receptor, respectively. The cells were harvested 48 h post-transfection, washed three times with cold PBS and stored at −80° C. prior to use. The pellet was suspended in cold 50 mM Tris-HCl buffer containing 10 mM EDTA (pH 7.4) and homogenized with a Polytron (Kinematica AG, Basel, Switzerland) for 20-30 sec at 12,000 rpm. After centrifugation at 48,000×g for 30 min at 4° C., the pellet was resuspended in cold 10 mM Tris-HCl buffer containing 0.1 mM EDTA (pH 7.4), homogenized, and centrifuged as above. This pellet was further resuspended in a smaller volume of ice cold 10 mM Tris-HCl buffer containing 0.1 mM EDTA (pH 7.4) and homogenized with a Polytron for 20-30 sec at 12,000 rpm. The protein content of this homogenate was determined with the Bio-Rad (Bradford) Protein Assay (Biorad Laboratories GmbH, München, Germany) according to the instructions of the manufacturer using gamma globulin as the standard. This homogenate was stored at −80° C. in aliquots and thawed immediately prior to use.
Aliquots of membrane preparations were thawed at RT, resuspended in assay buffer (D2, D3: 50 mM Tris-HCl, 120 mM NaCl, 5 mM MgCl2, 1 mM EDTA, 5 mM KCl, 1.5 mM CaCl2, pH=7.4; 5-HT2A: 50 mM Tris-HCl, 10 mM MgCl2, 1 mM EGTA, pH=7.4), homogenized with a Polytron for 20-30 sec at 12,000 rpm and adjusted to a final concentration of approximately 7.5 μg protein/well (D2, D3) and 15 μg protein/well (5-HT2A), respectively.
as §1, §2

Chain of human D3 dopamine receptor (P35462 whole entry): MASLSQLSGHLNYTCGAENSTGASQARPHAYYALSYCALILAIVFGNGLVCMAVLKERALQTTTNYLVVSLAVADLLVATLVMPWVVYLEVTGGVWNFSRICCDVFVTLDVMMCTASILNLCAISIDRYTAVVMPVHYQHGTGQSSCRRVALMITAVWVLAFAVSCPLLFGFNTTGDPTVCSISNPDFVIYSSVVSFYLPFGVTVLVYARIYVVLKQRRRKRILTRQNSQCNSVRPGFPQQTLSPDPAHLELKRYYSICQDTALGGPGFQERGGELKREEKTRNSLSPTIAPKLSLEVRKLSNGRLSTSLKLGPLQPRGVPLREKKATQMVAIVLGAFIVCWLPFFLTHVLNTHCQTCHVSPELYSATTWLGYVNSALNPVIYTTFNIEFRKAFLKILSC

Structure (SMILES) | Ki [1] [nM] | Ki [2] [nM]
CC(=O)N[C@H]1CC[C@H](CCN2CCC(c3noc4cc(F)ccc34)CC2)CC1 [Example 1, 4N-trans(4-{2-[4-(6-Fluoro-benzo[d]isoxazol-3-yl)-piperidin-1-yl]-ethyl}-cyclohexyl)-acetamide] | 4.96 | 2.22
O=C(N[C@H]1CC[C@H](CCN2CCC(c3noc4cc(F)ccc34)CC2)CC1)C1CCOCC1 [Example 2, Tetrahydro-pyran-4-carboxylic acid trans(4-{2-[4-(6-fluoro-benzo[d]isoxazol-3-yl)-piperidin-1-yl]-ethyl}-cyclohexyl)-amide] | 9.74 | 1.74
COCCC(=O)N[C@H]1CC[C@H](CCN2CCC(c3noc4cc(F)ccc34)CC2)CC1 [Example 3, N-trans (4-{2-[4-(6-Fluoro-benzo[d]isoxazol-3-yl)-piperidin-1-yl]-ethyl}-cyclohexyl)-3-methoxy-propionamide] | 4.75 | 1.81
O=C(N[C@H]1CC[C@H](CCN2CCC(c3noc4cc(F)ccc34)CC2)CC1)c1ccc(N2CCOCC2)cc1 [Example 4, N-trans-(4-{2-[4-(6-Fluoro-benzo[d]isoxazol-3-yl)-piperidin-1-yl]-ethyl}-cyclohexyl)-4-morpholin-4-yl-benzamide] |  | 9.52
O=C(N[C@H]1CC[C@H](CCN2CCC(c3noc4cc(F)ccc34)CC2)CC1)c1ccc(N2CCOCC2)nc1 [Example 4A, N-Trans (4-{2-[4-(6-Fluoro-benzo[d]isoxazol-3-yl)-piperidin-1-yl]-ethyl}-cyclohexyl)-6-morpholin-4-yl-nicotinamide] | 7.95 | 2.7
O=C(N[C@H]1CC[C@H](CCN2CCC(c3noc4cc(F)ccc34)CC2)CC1)c1cnc(N2CCOCC2)cn1 [Example 4B, 5-Morpholin-4-yl-pyrazine-2-carboxylic acid trans (4-{2-[4-(6-fluoro-benzo[d]isoxazol-3-yl)-piperidin-1-yl]-ethyl}-cyclohexyl)-amide] | 19.4 | 3.81
O=C(N[C@H]1CC[C@H](CCN2CCC(c3noc4cc(F)ccc34)CC2)CC1)c1ccc(N2CCOCC2)nn1 [Example 4C, 6-Morpholin-4-yl-pyridazine-3-carboxylic acid-trans (4-{2-[4-(6-fluoro-benzo[d]isoxazol-3-yl)-piperidin-1-yl]-ethyl}-cyclohexyl)-amide] | 25.3 | 3.18
O=C(N[C@H]1CC[C@H](CCN2CCC(c3noc4cc(F)ccc34)CC2)CC1)c1cnc(N2CCOCC2)nc1 [Example 4D, 2-Morpholin-4-yl-pyrimidine-5-carboxylic acid trans (4-{2-[4-(6-fluoro-benzo[d]isoxazol-3-yl)-piperidin-1-yl]-ethyl}-cyclohexyl)-amide] | 15.3 | 2.45
O=C(N[C@H]1CC[C@H](CCN2CCC(c3noc4cc(F)ccc34)CC2)CC1)c1ccc(N2CCOCC2)c(F)c1 [Example 5, 3-Fluoro-N-trans (4-{2-[4-(6-fluoro-benzo[d]isoxazol-3-yl)-piperidin-1-yl]-ethyl}-cyclohexyl)-4-morpholin-4-yl-benzamide] | 45.3 | 17.5
CN(C)c1ccc(C(=O)N[C@H]2CC[C@H](CCN3CCC(c4noc5cc(F)ccc45)CC3)CC2)cc1 [Example 6, 4-Dimethylamino-N-trans (4-{2-[4-(6-fluoro-benzo[d]isoxazol-3-yl)-piperidin-1-yl]-ethyl}-cyclohexyl)-benzamide] | 11.5 | 11.4
O=C(Cc1ccc2c(c1)OCO2)N[C@H]1CC[C@H](CCN2CCC(c3noc4cc(F)ccc34)CC2)CC1 [Example 7, 2-Benzo[1,3]dioxo1-5-yl-N-trans (4-{2-[4-(6-fluoro-benzo[d]isoxazol-3-yl)-piperidin-1-yl]-ethyl}-cyclohexyl)-acetamide] | 4.02 | 2.09
COc1ccc(C(=O)N[C@H]2CC[C@H](CCN3CCC(c4noc5cc(F)ccc45)CC3)CC2)cc1 [Example 8, N-trans-(4-{2-[4-(6-Fluoro-benzo[d]isoxazol-3-yl)-piperidin-1-yl]-ethyl}-cyclohexyl)-4-methoxy-benzamide] | 4.53 | 3.65
CC(C)(C)Oc1ccc(C(=O)N[C@H]2CC[C@H](CCN3CCC(c4noc5cc(F)ccc45)CC3)CC2)cc1 [Example 9, 4-tert-Butoxy-N-trans (4-{2-[4-(6-fluoro-benzo[d]isoxazol-3-yl)-piperidin-1-yl]-ethyl}-cyclohexyl)-benzamide] | 3.42 | 1.72
O=C(N[C@H]1CC[C@H](CCN2CCC(c3noc4cc(F)ccc34)CC2)CC1)c1ccc(Cl)cc1 [Example 10, 4-Chloro-N-trans (4-{2-[4-(6-fluoro-benzo[d]isoxazol-3-yl)-piperidin-1-yl]-ethyl}-cyclohexyl)-benzamide] | 3.5 | 2.67
O=C(N[C@H]1CC[C@H](CCN2CCC(c3noc4cc(F)ccc34)CC2)CC1)c1ccc(N2CCS(=O)(=O)CC2)cc1 [Example 11, 4-(1,1-Dioxo-1,6-thiomorpholin-4-yl)-N-trans (4-{2-[4-(6-fluoro-benzo[d]isoxazol-3-yl)-piperidin-1-yl]-ethyl}-cyclohexyl)-benzamide] | 4.67 | 2.48
O=C(N[C@H]1CC[C@H](CCN2CCC(c3noc4cc(F)ccc34)CC2)CC1)c1ccnc(N2CCOCC2)c1 [Example 12, N-trans (4-{2-[4-(6-Fluoro-benzo[d]isoxazol-3-yl)-piperidin-1-yl]-ethyl}-cyclohexyl)-2-morpholin-4-yl-isonicotinamide] |  | 2.46
O=C(N[C@H]1CC[C@H](CCN2CCC(c3noc4ccc(F)cc34)CC2)CC1)c1ccc2c(c1)OCO2 [Example 30, Benzo[1,3]dioxole-5-carboxylic acid trans (4-{2-[4-(5-fluoro-benzo[d]isoxazol-3-yl)-piperidin-1-yl]-ethyl}-cyclohexyl)-amide] |  | 11.2
O=C(CC1CCCCO1)N[C@H]1CC[C@H](CCN2CCC(c3noc4cc(Cl)ccc34)CC2)CC1 (stereo partly drawn) [Example 34, N-trans (4-{2-[4-(6-Chloro-benzo[d]isoxazol-3-yl)-piperidin-1-yl]-ethyl}-cyclohexyl)-2-(tetrahydro-pyran-2-yl)-acetamide] |  | 5.83
O=C(C[C@@H]1CCCCO1)N[C@H]1CC[C@H](CCN2CCC(c3noc4cc(Cl)ccc34)CC2)CC1 [Example 34A, N-trans (4-{2-[4-(6-Chloro-benzo[d]isoxazol-3-yl)-piperidin-1-yl]-ethyl}-cyclohexyl)-2-(R)-tetrahydro-pyran-2-yl-acetamide] |  | 13.7
O=C(C[C@H]1CCCCO1)N[C@H]1CC[C@H](CCN2CCC(c3noc4cc(Cl)ccc34)CC2)CC1 [Example 34B, N-trans (4-{2-[4-(6-Chloro-benzo[d]isoxazol-3-yl)-piperidin-1-yl]-ethyl}-cyclohexyl)-2-(S)-tetrahydro-pyran-2-yl-acetamide] |  | 15.3
